According to PubChem BioAssay (NCI):
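48-hour exposure; five concentrations; linearly interpolated endpoints. TGI denotes the concentration required for complete inhibition of growth.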

Columns and labels:
Experiment in all cases: NCI-60 cell line screen, 48 h
[1] = system: SW-620 colon
[2] = system: MCF7 breast
[3] = system: U251 CNS
[4] = system: NCI-H522 lung
[5] = system: MALME-3M melanoma
[6] = system: SNB-75 CNS
[7] = system: SN12C renal
[8] = system: LOX IMVI melanoma
[9] = system: UO-31 renal
[10] = system: UACC-62 melanoma
[11] = system: SF-295 CNS
[12] = system: A549 NSCLC
[13] = system: ACHN renal
[14] = system: BT-549 breast
[15] = system: NCI-H226 lung
[16] = system: MDA-N
[17] = system: EKVX NSCLC
[18] = system: HCT-15 colon
[19] = system: SK-MEL-2 melanoma
[20] = system: DU-145 prostate
[21] = system: K-562 leukemia
[22] = system: SF-539 CNS
[23] = system: HT29 colon
[24] = system: SK-MEL-28 melanoma
[25] = system: RXF 393 renal
[26] = system: HOP-92 NSCLC
[27] = system: NCI/ADR-RES ovarian
[28] = system: HCT-116 colon
[29] = system: MDA-MB-435
[30] = system: KM12 colon
[31] = system: OVCAR-8 ovarian
[32] = system: A498 renal
[33] = system: SK-OV-3 ovarian
[34] = system: UACC-257 melanoma
[35] = system: SF-268 CNS
[36] = system: CAKI-1 renal
[37] = system: IGROV1 ovarian
[38] = system: OVCAR-3 ovarian
[39] = system: HCC-2998 colon
[40] = system: RPMI-8226 leukemia
[41] = system: NCI-H23 lung
[42] = system: SNB-19 CNS
[43] = system: OVCAR-4 ovarian
[44] = system: T-47D breast
[45] = system: OVCAR-5 ovarian
[46] = system: MDA-MB-231 breast
[47] = system: PC-3 prostate
[48] = system: SR leukemia
[49] = system: HS 578T breast
[50] = system: CCRF-CEM leukemia
[51] = system: M14 melanoma
[52] = system: HL-60(TB) leukemia
[53] = system: NCI-H460 lung
[54] = system: TK-10 renal
[55] = system: SK-MEL-5 melanoma
[56] = system: 786-0 renal
[57] = system: HOP-62 NSCLC
[58] = system: COLO 205 colon
[59] = system: MOLT-4 leukemia

## c1ccc(-c2nnc(SCc3c[nH]c4ccccc34)n2-c2ccccc2)cc1
[1]
  TGI: > 100 µM
[2]
  TGI: > 100 µM
[3]
  TGI: > 100 µM
[4]
  TGI: > 100 µM
[5]
  TGI: > 100 µM
[6]
  TGI: 57.6 µM
[7]
  TGI: > 100 µM
[8]
  TGI: > 100 µM
[9]
  TGI: > 100 µM
[10]
  TGI: 66.7 µM
[11]
  TGI: > 100 µM
[12]
  TGI: > 100 µM
[13]
  TGI: > 100 µM
[14]
  TGI: 98.7 µM
[15]
  TGI: > 100 µM
[16]
  TGI: > 100 µM
[17]
  TGI: > 100 µM
[18]
  TGI: > 100 µM
[19]
  TGI: > 100 µM
[20]
  TGI: > 100 µM
[21]
  TGI: > 100 µM
[22]
  TGI: 70.3 µM
[23]
  TGI: > 100 µM
[24]
  TGI: > 100 µM
[25]
  TGI: 52.5 µM
[26]
  TGI: 79.3 µM
[27]
  TGI: > 100 µM
[28]
  TGI: > 100 µM
[29]
  TGI: > 100 µM
[30]
  TGI: > 100 µM
[31]
  TGI: > 100 µM
[32]
  TGI: 56 µM
[33]
  TGI: > 100 µM
[34]
  TGI: > 100 µM
[35]
  TGI: > 100 µM
[36]
  TGI: > 100 µM
[37]
  TGI: > 100 µM
[38]
  TGI: > 100 µM
[39]
  TGI: > 100 µM
[40]
  TGI: > 100 µM
[41]
  TGI: > 100 µM
[42]
  TGI: > 100 µM
[43]
  TGI: > 100 µM
[44]
  TGI: > 100 µM
[45]
  TGI: > 100 µM
[46]
  TGI: > 100 µM
[47]
  TGI: 93.9 µM
[48]
  TGI: > 100 µM
[49]
  TGI: 93.5 µM
[50]
  TGI: > 100 µM
[51]
  TGI: > 100 µM
[52]
  TGI: > 100 µM
[53]
  TGI: > 100 µM
[54]
  TGI: 64.1 µM
[55]
  TGI: 61 µM
[56]
  TGI: > 100 µM
[57]
  TGI: > 100 µM
[58]
  TGI: > 100 µM
[59]
  TGI: > 100 µM

## Cc1cc(S(=O)(=O)NC2=NC(c3ccccc3)c3cc(Cl)ccc3N2)c(S)cc1Cl (stereo not drawn)
[1]
  TGI: > 100 µM
[2]
  TGI: > 100 µM
[3]
  TGI: > 100 µM
[4]
  TGI: > 100 µM
[5]
  TGI: > 100 µM
[6]
  TGI: > 100 µM
[7]
  TGI: > 100 µM
[8]
  TGI: > 100 µM
[9]
  TGI: 83.7 µM
[10]
  TGI: > 100 µM
[11]
  TGI: > 100 µM
[12]
  TGI: > 100 µM
[13]
  TGI: > 100 µM
[14]
  TGI: > 100 µM
[15]
  TGI: > 100 µM
[16]
  TGI: > 100 µM
[17]
  TGI: > 100 µM
[18]
  TGI: > 100 µM
[20]
  TGI: > 100 µM
[21]
  TGI: > 100 µM
[22]
  TGI: > 100 µM
[23]
  TGI: > 100 µM
[24]
  TGI: > 100 µM
[25]
  TGI: > 100 µM
[26]
  TGI: > 100 µM
[27]
  TGI: > 100 µM
[28]
  TGI: > 100 µM
[29]
  TGI: > 100 µM
[30]
  TGI: > 100 µM
[31]
  TGI: > 100 µM
[32]
  TGI: > 100 µM
[33]
  TGI: > 100 µM
[34]
  TGI: > 100 µM
[35]
  TGI: > 100 µM
[36]
  TGI: > 100 µM
[37]
  TGI: > 100 µM
[38]
  TGI: > 100 µM
[39]
  TGI: > 100 µM
[40]
  TGI: > 100 µM
[41]
  TGI: > 100 µM
[42]
  TGI: > 100 µM
[43]
  TGI: > 100 µM
[44]
  TGI: > 100 µM
[45]
  TGI: > 100 µM
[46]
  TGI: > 100 µM
[47]
  TGI: > 100 µM
[48]
  TGI: > 100 µM
[49]
  TGI: > 100 µM
[50]
  TGI: > 100 µM
[51]
  TGI: > 100 µM
[52]
  TGI: > 100 µM
[53]
  TGI: > 100 µM
[54]
  TGI: > 100 µM
[55]
  TGI: > 100 µM
[56]
  TGI: > 100 µM
[57]
  TGI: > 100 µM
[58]
  TGI: > 100 µM
[59]
  TGI: > 100 µM

## O=C(NNCC(F)(F)F)c1ccncc1
[1]
  TGI: > 100 µM
[2]
  TGI: > 100 µM
[3]
  TGI: > 100 µM
[4]
  TGI: > 100 µM
[5]
  TGI: > 100 µM
[6]
  TGI: > 100 µM
[7]
  TGI: > 100 µM
[8]
  TGI: > 100 µM
[9]
  TGI: > 100 µM
[10]
  TGI: > 100 µM
[11]
  TGI: > 100 µM
[12]
  TGI: > 100 µM
[13]
  TGI: > 100 µM
[14]
  TGI: > 100 µM
[15]
  TGI: > 100 µM
[16]
  TGI: > 100 µM
[17]
  TGI: > 100 µM
[18]
  TGI: > 100 µM
[19]
  TGI: > 100 µM
[20]
  TGI: > 100 µM
[21]
  TGI: > 100 µM
[22]
  TGI: > 100 µM
[23]
  TGI: > 100 µM
[24]
  TGI: > 100 µM
[25]
  TGI: > 100 µM
[26]
  TGI: > 100 µM
[27]
  TGI: > 100 µM
[28]
  TGI: > 100 µM
[29]
  TGI: > 100 µM
[30]
  TGI: > 100 µM
[31]
  TGI: > 100 µM
[32]
  TGI: > 100 µM
[33]
  TGI: > 100 µM
[34]
  TGI: > 100 µM
[35]
  TGI: > 100 µM
[36]
  TGI: > 100 µM
[37]
  TGI: > 100 µM
[38]
  TGI: > 100 µM
[39]
  TGI: > 100 µM
[40]
  TGI: > 100 µM
[41]
  TGI: > 100 µM
[42]
  TGI: > 100 µM
[43]
  TGI: > 100 µM
[44]
  TGI: > 100 µM
[45]
  TGI: > 100 µM
[46]
  TGI: > 100 µM
[47]
  TGI: > 100 µM
[48]
  TGI: > 100 µM
[49]
  TGI: > 100 µM
[50]
  TGI: > 100 µM
[51]
  TGI: > 100 µM
[52]
  TGI: > 100 µM
[53]
  TGI: > 100 µM
[54]
  TGI: > 100 µM
[55]
  TGI: > 100 µM
[56]
  TGI: > 100 µM
[57]
  TGI: > 100 µM
[58]
  TGI: > 100 µM
[59]
  TGI: > 100 µM

## CCOc1ccc2c(C)cc(=O)oc2c1
[1]
  TGI: > 100 µM
[2]
  TGI: > 100 µM
[3]
  TGI: > 100 µM
[4]
  TGI: > 100 µM
[5]
  TGI: > 100 µM
[6]
  TGI: > 100 µM
[7]
  TGI: > 100 µM
[8]
  TGI: > 100 µM
[9]
  TGI: > 100 µM
[10]
  TGI: > 100 µM
[11]
  TGI: > 100 µM
[12]
  TGI: > 100 µM
[13]
  TGI: > 100 µM
[14]
  TGI: > 100 µM
[15]
  TGI: > 100 µM
[16]
  TGI: > 100 µM
[17]
  TGI: > 100 µM
[18]
  TGI: > 100 µM
[19]
  TGI: > 100 µM
[20]
  TGI: > 100 µM
[21]
  TGI: > 100 µM
[22]
  TGI: > 100 µM
[23]
  TGI: > 100 µM
[24]
  TGI: > 100 µM
[25]
  TGI: > 100 µM
[26]
  TGI: > 100 µM
[27]
  TGI: > 100 µM
[28]
  TGI: > 100 µM
[29]
  TGI: > 100 µM
[30]
  TGI: > 100 µM
[31]
  TGI: > 100 µM
[32]
  TGI: > 100 µM
[34]
  TGI: > 100 µM
[35]
  TGI: > 100 µM
[36]
  TGI: > 100 µM
[37]
  TGI: > 100 µM
[38]
  TGI: > 100 µM
[39]
  TGI: > 100 µM
[40]
  TGI: > 100 µM
[41]
  TGI: > 100 µM
[42]
  TGI: > 100 µM
[43]
  TGI: > 100 µM
[44]
  TGI: > 100 µM
[45]
  TGI: > 100 µM
[46]
  TGI: > 100 µM
[47]
  TGI: > 100 µM
[48]
  TGI: > 100 µM
[49]
  TGI: > 100 µM
[50]
  TGI: > 100 µM
[51]
  TGI: > 100 µM
[52]
  TGI: > 100 µM
[53]
  TGI: > 100 µM
[55]
  TGI: > 100 µM
[56]
  TGI: > 100 µM
[57]
  TGI: > 100 µM
[58]
  TGI: > 100 µM
[59]
  TGI: > 100 µM
